Test results from ChEMBL document CHEMBL4000244, “Probing A-form DNA: A fluorescent aminosugar probe and dual recognition by anthraquinone-neomycin conjugates” (Bioorg Med Chem, 2017).

Legend:
[1] = Binding affinity to 5'-GCCCCCGG-3' DNA hairpin assessed as change in fluorescence intensity at 1 uM after 45 mins by fluorescence quenching analysis relative to control
[2] = Binding affinity to 5'-CGGCCCCC-3' DNA hairpin assessed as change in fluorescence intensity at 1 uM after 45 mins by fluorescence quenching analysis relative to control
[3] = Binding affinity to 5'-GGCCCGCG-3' DNA hairpin assessed as change in fluorescence intensity at 1 uM after 45 mins by fluorescence quenching analysis relative to control
[4] = Binding affinity to 5'-CGCGCCCC-3' DNA hairpin assessed as change in fluorescence intensity at 1 uM after 45 mins by fluorescence quenching analysis relative to control
[5] = Binding affinity to 5'-GGCCCGGC-3' DNA hairpin assessed as change in fluorescence intensity at 1 uM after 45 mins by fluorescence quenching analysis relative to control
[6] = Binding affinity to 5'-CCGGGGCC-3' DNA hairpin assessed as change in fluorescence intensity at 1 uM after 45 mins by fluorescence quenching analysis relative to control
[7] = Binding affinity to 5'-GGCCGCGC-3' DNA hairpin assessed as change in fluorescence intensity at 1 uM after 45 mins by fluorescence quenching analysis relative to control
[8] = Binding affinity to 5'-CGGCGGGC-3' DNA hairpin assessed as change in fluorescence intensity at 1 uM after 45 mins by fluorescence quenching analysis relative to control
[9] = Binding affinity to 5'-GGCGGGGC-3' DNA hairpin assessed as change in fluorescence intensity at 1 uM after 45 mins by fluorescence quenching analysis relative to control
[10] = Binding affinity to 5'-CGGCGGCC-3' DNA hairpin assessed as change in fluorescence intensity at 1 uM after 45 mins by fluorescence quenching analysis relative to control
[11] = Binding affinity to 5'-CGCGGGCC-3' DNA hairpin assessed as change in fluorescence intensity at 1 uM after 45 mins by fluorescence quenching analysis relative to control
[12] = Binding affinity to 5'-CGCCGCCC-3' DNA hairpin assessed as change in fluorescence intensity at 1 uM after 45 mins by fluorescence quenching analysis relative to control
[13] = Binding affinity to 5'-CGGCGCCC-3' DNA hairpin assessed as change in fluorescence intensity at 1 uM after 45 mins by fluorescence quenching analysis relative to control
[14] = Binding affinity to 5'-CCGGCGCG-3' DNA hairpin assessed as change in fluorescence intensity at 1 uM after 45 mins by fluorescence quenching analysis relative to control
[15] = Binding affinity to 5'-CGCCCGCG-3' DNA hairpin assessed as change in fluorescence intensity at 1 uM after 45 mins by fluorescence quenching analysis relative to control
[16] = Binding affinity to 5'-GGCGCGGG-3' DNA hairpin assessed as change in fluorescence intensity at 1 uM after 45 mins by fluorescence quenching analysis relative to control
[17] = Binding affinity to 5'-CGCCGCGC-3' DNA hairpin assessed as change in fluorescence intensity at 1 uM after 45 mins by fluorescence quenching analysis relative to control
[18] = Binding affinity to 5'-GCGGCGGC-3' DNA hairpin assessed as change in fluorescence intensity at 1 uM after 45 mins by fluorescence quenching analysis relative to control
[19] = Binding affinity to 5'-GCCCGCCC-3' DNA hairpin assessed as change in fluorescence intensity at 1 uM after 45 mins by fluorescence quenching analysis relative to control
[20] = Binding affinity to 5'-CGCGGGGC-3' DNA hairpin assessed as change in fluorescence intensity at 1 uM after 45 mins by fluorescence quenching analysis relative to control
[21] = Binding affinity to 5'-GCCGCGCC-3' DNA hairpin assessed as change in fluorescence intensity at 1 uM after 45 mins by fluorescence quenching analysis relative to control
[22] = Binding affinity to 5'-CGGGGCGC-3' DNA hairpin assessed as change in fluorescence intensity at 1 uM after 45 mins by fluorescence quenching analysis relative to control
[23] = Binding affinity to 5'-GCGCGGCG-3' DNA hairpin assessed as change in fluorescence intensity at 1 uM after 45 mins by fluorescence quenching analysis relative to control
[24] = Binding affinity to 5'-GGCCGCGG-3' DNA hairpin assessed as change in fluorescence intensity at 1 uM after 45 mins by fluorescence quenching analysis relative to control
[25] = Binding affinity to 5'-GCCCGCGG-3' DNA hairpin assessed as change in fluorescence intensity at 1 uM after 45 mins by fluorescence quenching analysis relative to control
[26] = Binding affinity to 5'-GGCGGCGC-3' DNA hairpin assessed as change in fluorescence intensity at 1 uM after 45 mins by fluorescence quenching analysis relative to control
[27] = Binding affinity to 5'-CGCCGGCG-3' DNA hairpin assessed as change in fluorescence intensity at 1 uM after 45 mins by fluorescence quenching analysis relative to control
[28] = Binding affinity to 5'-GGGCGCGG-3' DNA hairpin assessed as change in fluorescence intensity at 1 uM after 45 mins by fluorescence quenching analysis relative to control
[29] = Binding affinity to 5'-CGCGGCGC-3' DNA hairpin assessed as change in fluorescence intensity at 1 uM after 45 mins by fluorescence quenching analysis relative to control
[30] = Binding affinity to 5'-GCGGCCCG-3' DNA hairpin assessed as change in fluorescence intensity at 1 uM after 45 mins by fluorescence quenching analysis relative to control
[31] = Binding affinity to 5'-GGCGCCGG-3' DNA hairpin assessed as change in fluorescence intensity at 1 uM after 45 mins by fluorescence quenching analysis relative to control
[32] = Binding affinity to 5'-CCGCGCCG-3' DNA hairpin assessed as change in fluorescence intensity at 1 uM after 45 mins by fluorescence quenching analysis relative to control
[33] = Binding affinity to 5'-GCCGCCGG-3' DNA hairpin assessed as change in fluorescence intensity at 1 uM after 45 mins by fluorescence quenching analysis relative to control
[34] = Binding affinity to 5'-GCGGCCGC-3' DNA hairpin assessed as change in fluorescence intensity at 1 uM after 45 mins by fluorescence quenching analysis relative to control
[35] = Binding affinity to 5'-GCCGCGCG-3' DNA hairpin assessed as change in fluorescence intensity at 1 uM after 45 mins by fluorescence quenching analysis relative to control
[36] = Binding affinity to d(G4C4)2 DNA major groove assessed as change in electrostatic potential at 10 uM at pH 4.65 to 9.78 by UV-Visible spectrophotometric method

Activity [1]: 16%
Activity [2]: 29.6%
Activity [3]: 34.3%
Activity [4]: 36.3%
Activity [5]: 37%
Activity [6]: 37.6%
Activity [7]: 39.6%
Activity [8]: 43.1%
Activity [9]: 43.2%
Activity [10]: 43.8%
Activity [11]: 44.3%
Activity [12]: 44.6%
Activity [13]: 45.2%
Activity [14]: 45.4%
Activity [15]: 45.7%
Activity [16]: 46.2%
Activity [17]: 46.6%
Activity [18]: 47.7%
Activity [19]: 47.8%
Activity [20]: 48.3%
Activity [21]: 48.8%
Activity [22]: 49%
Activity [23]: 49.1%
Activity [24]: 49.8%
Activity [25]: 50.3%
Activity [26]: 50.6%
Activity [27]: 50.8%
Activity [28]: 51.5%
Activity [29]: 52.5%
Activity [30]: 52.5%
Activity [31]: 53.2%
Activity [32]: 53.7%
Activity [33]: 54.5%
Activity [34]: 54.5%
Activity [35]: 58.2%
Activity [36]: -1.01 kT/e
Compound: NCC1O[C@H](O[C@H]2[C@@H](O)[C@H](O[C@@H]3[C@@H](O)[C@H](N)C[C@H](N)[C@H]3O[C@H]3O[C@H](CN)[C@@H](O)[C@H](O)[C@H]3N)O[C@@H]2CSCCNC(=O)CCSCC(=O)Nc2ccc(-c3c4ccc(=O)cc-4oc4cc(O)ccc34)c(C(=O)O)c2)[C@H](N)[C@@H](O)[C@@H]1O (stereo partly specified)
